In ChEMBL document CHEMBL4507311, “Data for DCP probe A-1155463” (2021):

What was measured:
[1] = target: Mitogen-activated protein kinase kinase kinase 6 (Homo sapiens) (UniProt O95382); conditions: Compound concentration 1000.0 nM
[2] = target: Serine/threonine-protein kinase DCLK3 (Homo sapiens) (UniProt Q9C098); conditions: Compound concentration 1000.0 nM
[3] = target: Serine/threonine-protein kinase WNK4 (Homo sapiens) (UniProt Q96J92); conditions: Compound concentration 1000.0 nM
[4] = target: Receptor tyrosine-protein kinase erbB-2 (Homo sapiens) (UniProt P04626); conditions: Compound concentration 1000.0 nM
[5] = target: Protein kinase C iota type (Homo sapiens) (UniProt P41743); conditions: Compound concentration 1000.0 nM
[6] = tested on: Proto-oncogene tyrosine-protein kinase receptor Ret (Homo sapiens), P07949 [V804M]; conditions: Compound concentration 1000.0 nM
[7] = target: Calcium/calmodulin-dependent protein kinase kinase 1 (Homo sapiens) (UniProt Q8N5S9); conditions: Compound concentration 1000.0 nM
[8] = target: Platelet-derived growth factor receptor beta (Homo sapiens) (UniProt P09619); conditions: Compound concentration 1000.0 nM
[9] = target: 5-hydroxytryptamine receptor 1D (Homo sapiens) (UniProt P28221); conditions: Compound concentration 10.0 uM
Chain of 5-hydroxytryptamine receptor 1D (Homo sapiens) (P28221 whole entry): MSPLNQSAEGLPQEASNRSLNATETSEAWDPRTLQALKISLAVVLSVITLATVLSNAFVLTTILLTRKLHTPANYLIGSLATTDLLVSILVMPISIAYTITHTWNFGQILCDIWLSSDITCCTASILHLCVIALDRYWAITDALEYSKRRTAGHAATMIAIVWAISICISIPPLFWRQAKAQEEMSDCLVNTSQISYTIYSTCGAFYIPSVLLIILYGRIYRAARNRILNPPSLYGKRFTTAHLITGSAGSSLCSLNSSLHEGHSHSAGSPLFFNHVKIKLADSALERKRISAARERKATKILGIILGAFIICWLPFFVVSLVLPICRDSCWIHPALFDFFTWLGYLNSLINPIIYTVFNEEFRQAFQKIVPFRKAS

[10] = target: Proto-oncogene tyrosine-protein kinase ROS (Homo sapiens) (UniProt P08922); conditions: Compound concentration 1000.0 nM
[11] = target: Ribosomal protein S6 kinase alpha-4 (Homo sapiens) (UniProt O75676); conditions: Compound concentration 1000.0 nM
[12] = target: Mitogen-activated protein kinase kinase kinase kinase 1 (Homo sapiens) (UniProt Q92918); conditions: Compound concentration 1000.0 nM
[13] = target: Cyclin-dependent kinase 8 (Homo sapiens) (UniProt P49336); conditions: Compound concentration 1000.0 nM
[14] = tested on: Hepatocyte growth factor receptor (Homo sapiens), P08581 [Y1235D]; conditions: Compound concentration 1000.0 nM
[15] = target: Serine/threonine-protein kinase Sgk1 (Homo sapiens) (UniProt O00141); conditions: Compound concentration 1000.0 nM
[16] = tested on: Phosphatidylinositol 4,5-bisphosphate 3-kinase catalytic subunit alpha isoform (Homo sapiens), P42336 [E545A]; conditions: Compound concentration 1000.0 nM
[17] = tested on: Mast/stem cell growth factor receptor Kit (Homo sapiens), P10721 [V559D]; conditions: Compound concentration 1000.0 nM
[18] = target: Leukocyte tyrosine kinase receptor (Homo sapiens) (UniProt P29376); conditions: Compound concentration 1000.0 nM
[19] = target: MAP/microtubule affinity-regulating kinase 4 (Homo sapiens) (UniProt Q96L34); conditions: Compound concentration 1000.0 nM
[20] = target: Serine/threonine-protein kinase 33 (Homo sapiens) (UniProt Q9BYT3); conditions: Compound concentration 1000.0 nM
[21] = target: Mitogen-activated protein kinase kinase kinase 3 (Homo sapiens) (UniProt Q99759); conditions: Compound concentration 1000.0 nM
[22] = target: Cyclin-dependent kinase 2 (Homo sapiens) (UniProt P24941); conditions: Compound concentration 1000.0 nM
[23] = target: Serine/threonine-protein kinase PAK 1 (Homo sapiens) (UniProt Q13153); conditions: Compound concentration 1000.0 nM
[24] = target: Serine/threonine-protein kinase Chk2 (Homo sapiens) (UniProt O96017); conditions: Compound concentration 1000.0 nM
[25] = target: Megakaryocyte-associated tyrosine-protein kinase (Homo sapiens) (UniProt P42679); conditions: Compound concentration 1000.0 nM
[26] = tested on: Epidermal growth factor receptor (Homo sapiens), P00533 [L858R,T790M]; conditions: Compound concentration 1000.0 nM
[27] = target: Calcium/calmodulin-dependent protein kinase type II subunit gamma (Homo sapiens) (UniProt Q13555); conditions: Compound concentration 1000.0 nM
[28] = target: Phosphatidylinositol 4-phosphate 3-kinase C2 domain-containing subunit beta (Homo sapiens) (UniProt O00750); conditions: Compound concentration 1000.0 nM
[29] = target: Tyrosine-protein kinase ABL2 (Homo sapiens) (UniProt P42684); conditions: Compound concentration 1000.0 nM
[30] = tested on: Receptor-type tyrosine-protein kinase FLT3 (Homo sapiens), P36888 [UNDEFINED MUTATION]; conditions: Compound concentration 1000.0 nM
Chain of Receptor-type tyrosine-protein kinase FLT3 (Homo sapiens), P36888 [UNDEFINED MUTATION] (P36888 whole entry, looked up, stated change not applied, canonical isoform): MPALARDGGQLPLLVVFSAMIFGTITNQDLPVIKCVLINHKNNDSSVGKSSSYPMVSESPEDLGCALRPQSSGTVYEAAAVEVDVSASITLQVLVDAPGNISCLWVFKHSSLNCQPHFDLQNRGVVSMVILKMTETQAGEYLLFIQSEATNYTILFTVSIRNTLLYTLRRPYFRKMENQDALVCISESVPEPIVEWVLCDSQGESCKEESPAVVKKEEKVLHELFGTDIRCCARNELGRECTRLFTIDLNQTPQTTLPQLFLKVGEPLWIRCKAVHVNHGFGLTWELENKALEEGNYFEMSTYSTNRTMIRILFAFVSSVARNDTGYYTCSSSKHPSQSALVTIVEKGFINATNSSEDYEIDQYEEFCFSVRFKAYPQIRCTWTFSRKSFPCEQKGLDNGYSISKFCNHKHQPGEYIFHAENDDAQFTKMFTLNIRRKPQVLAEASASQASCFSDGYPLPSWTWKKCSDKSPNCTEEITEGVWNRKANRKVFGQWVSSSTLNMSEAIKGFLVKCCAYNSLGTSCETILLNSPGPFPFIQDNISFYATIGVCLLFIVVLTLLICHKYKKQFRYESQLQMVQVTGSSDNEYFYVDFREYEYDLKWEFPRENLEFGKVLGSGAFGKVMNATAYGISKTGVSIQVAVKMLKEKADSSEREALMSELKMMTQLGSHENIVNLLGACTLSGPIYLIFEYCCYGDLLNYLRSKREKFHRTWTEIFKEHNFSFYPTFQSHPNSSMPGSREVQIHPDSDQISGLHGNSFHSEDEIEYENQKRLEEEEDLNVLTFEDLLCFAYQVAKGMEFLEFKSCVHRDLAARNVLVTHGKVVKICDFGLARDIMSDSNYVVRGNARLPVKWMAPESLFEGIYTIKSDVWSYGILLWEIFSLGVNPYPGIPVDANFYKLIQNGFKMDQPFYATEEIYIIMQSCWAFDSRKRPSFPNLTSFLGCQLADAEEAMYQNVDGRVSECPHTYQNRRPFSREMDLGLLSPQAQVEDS

[31] = tested on: Phosphatidylinositol 4,5-bisphosphate 3-kinase catalytic subunit alpha isoform (Homo sapiens), P42336 [C420R]; conditions: Compound concentration 1000.0 nM
[32] = target: Cyclin-dependent kinase 16 (Homo sapiens) (UniProt Q00536); conditions: Compound concentration 1000.0 nM
[33] = target: Angiopoietin-1 receptor (Homo sapiens) (UniProt Q02763); conditions: Compound concentration 1000.0 nM
Chain of Angiopoietin-1 receptor (Homo sapiens) (Q02763 whole entry): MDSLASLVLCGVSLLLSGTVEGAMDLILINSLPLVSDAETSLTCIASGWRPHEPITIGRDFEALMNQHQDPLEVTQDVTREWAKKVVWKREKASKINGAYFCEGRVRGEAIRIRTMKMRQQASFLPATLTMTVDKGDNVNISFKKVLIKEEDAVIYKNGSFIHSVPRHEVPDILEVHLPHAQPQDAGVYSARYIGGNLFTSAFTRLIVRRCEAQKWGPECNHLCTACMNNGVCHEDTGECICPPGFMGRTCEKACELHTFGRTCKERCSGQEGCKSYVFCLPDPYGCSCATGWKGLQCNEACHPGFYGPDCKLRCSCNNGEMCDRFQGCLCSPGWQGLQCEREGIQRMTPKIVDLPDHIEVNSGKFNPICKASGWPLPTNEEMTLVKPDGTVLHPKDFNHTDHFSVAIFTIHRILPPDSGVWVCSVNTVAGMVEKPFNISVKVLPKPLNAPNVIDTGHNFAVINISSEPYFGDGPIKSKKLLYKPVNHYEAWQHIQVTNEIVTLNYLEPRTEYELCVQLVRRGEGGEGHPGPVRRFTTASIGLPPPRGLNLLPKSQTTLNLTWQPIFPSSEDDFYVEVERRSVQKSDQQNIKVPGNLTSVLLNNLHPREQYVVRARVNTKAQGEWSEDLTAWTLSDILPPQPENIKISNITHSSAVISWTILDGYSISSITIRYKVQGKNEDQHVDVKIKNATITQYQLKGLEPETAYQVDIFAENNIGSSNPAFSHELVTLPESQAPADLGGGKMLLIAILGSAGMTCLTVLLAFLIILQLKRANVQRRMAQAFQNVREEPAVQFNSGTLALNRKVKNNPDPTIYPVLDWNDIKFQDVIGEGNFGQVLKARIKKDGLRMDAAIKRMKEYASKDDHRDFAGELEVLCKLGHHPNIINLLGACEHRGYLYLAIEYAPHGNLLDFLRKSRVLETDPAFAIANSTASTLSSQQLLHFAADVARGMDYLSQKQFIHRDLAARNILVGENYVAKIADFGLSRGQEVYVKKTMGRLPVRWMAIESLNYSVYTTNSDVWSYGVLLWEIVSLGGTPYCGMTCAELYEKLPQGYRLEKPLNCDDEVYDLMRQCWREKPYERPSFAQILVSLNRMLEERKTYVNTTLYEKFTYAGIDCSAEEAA

[34] = target: Cyclin-dependent kinase 4 (Homo sapiens) (UniProt P11802); conditions: Compound concentration 1000.0 nM
[35] = target: Transient receptor potential cation channel subfamily M member 6 (Homo sapiens) (UniProt Q9BX84); conditions: Compound concentration 1000.0 nM
Chain of Transient receptor potential cation channel subfamily M member 6 (Homo sapiens) (Q9BX84 whole entry): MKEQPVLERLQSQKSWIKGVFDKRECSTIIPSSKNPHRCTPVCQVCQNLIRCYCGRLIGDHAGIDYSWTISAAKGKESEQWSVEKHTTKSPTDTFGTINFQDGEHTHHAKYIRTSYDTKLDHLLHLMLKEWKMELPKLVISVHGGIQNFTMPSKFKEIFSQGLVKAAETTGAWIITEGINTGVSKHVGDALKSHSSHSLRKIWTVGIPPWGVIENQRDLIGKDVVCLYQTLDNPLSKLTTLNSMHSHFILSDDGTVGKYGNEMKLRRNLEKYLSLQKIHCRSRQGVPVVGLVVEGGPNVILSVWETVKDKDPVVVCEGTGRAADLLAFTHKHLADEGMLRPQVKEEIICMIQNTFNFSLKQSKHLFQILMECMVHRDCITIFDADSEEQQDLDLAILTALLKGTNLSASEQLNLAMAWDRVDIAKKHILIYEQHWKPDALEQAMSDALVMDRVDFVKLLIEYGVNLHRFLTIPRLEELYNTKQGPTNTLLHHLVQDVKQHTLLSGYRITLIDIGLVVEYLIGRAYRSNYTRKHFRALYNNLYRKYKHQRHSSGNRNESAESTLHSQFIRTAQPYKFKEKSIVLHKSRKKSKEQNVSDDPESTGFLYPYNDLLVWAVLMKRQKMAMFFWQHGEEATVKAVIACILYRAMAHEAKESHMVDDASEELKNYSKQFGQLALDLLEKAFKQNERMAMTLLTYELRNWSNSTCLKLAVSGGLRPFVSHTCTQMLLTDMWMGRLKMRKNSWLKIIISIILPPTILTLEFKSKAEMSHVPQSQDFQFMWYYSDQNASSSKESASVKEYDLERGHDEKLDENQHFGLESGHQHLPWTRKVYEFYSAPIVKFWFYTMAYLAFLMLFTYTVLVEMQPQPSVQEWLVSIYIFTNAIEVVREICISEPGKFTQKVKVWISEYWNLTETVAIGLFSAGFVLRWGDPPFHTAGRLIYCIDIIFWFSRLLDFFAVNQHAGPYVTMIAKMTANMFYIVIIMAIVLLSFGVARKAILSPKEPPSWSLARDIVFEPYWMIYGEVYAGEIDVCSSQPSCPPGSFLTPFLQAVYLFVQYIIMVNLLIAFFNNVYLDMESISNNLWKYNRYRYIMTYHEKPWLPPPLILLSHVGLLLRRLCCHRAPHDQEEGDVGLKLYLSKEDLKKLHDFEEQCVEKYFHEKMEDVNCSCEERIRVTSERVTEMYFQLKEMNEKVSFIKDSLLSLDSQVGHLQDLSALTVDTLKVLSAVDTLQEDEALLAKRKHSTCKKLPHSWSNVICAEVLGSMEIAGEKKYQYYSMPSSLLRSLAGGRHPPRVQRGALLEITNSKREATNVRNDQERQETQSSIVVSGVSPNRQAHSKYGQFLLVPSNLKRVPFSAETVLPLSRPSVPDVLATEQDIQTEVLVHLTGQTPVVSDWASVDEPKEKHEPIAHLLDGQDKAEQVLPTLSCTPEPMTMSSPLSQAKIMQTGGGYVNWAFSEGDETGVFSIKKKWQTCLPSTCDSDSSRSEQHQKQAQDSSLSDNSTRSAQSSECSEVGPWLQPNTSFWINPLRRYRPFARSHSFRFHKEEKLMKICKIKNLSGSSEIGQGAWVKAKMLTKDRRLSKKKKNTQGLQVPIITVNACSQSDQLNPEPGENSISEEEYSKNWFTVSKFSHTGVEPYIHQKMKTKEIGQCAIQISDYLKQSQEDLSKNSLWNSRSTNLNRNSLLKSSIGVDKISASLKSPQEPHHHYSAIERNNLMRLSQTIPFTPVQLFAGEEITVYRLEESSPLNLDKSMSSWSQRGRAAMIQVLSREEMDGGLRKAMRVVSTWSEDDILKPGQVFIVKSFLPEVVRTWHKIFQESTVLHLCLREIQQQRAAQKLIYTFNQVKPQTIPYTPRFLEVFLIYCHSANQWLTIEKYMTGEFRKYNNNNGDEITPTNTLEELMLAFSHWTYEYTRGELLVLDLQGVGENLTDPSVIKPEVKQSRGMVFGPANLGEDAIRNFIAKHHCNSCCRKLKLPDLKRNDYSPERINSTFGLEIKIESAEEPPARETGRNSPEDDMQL

[36] = target: Serine/threonine-protein kinase DCLK2 (Homo sapiens) (UniProt Q8N568); conditions: Compound concentration 1000.0 nM
[37] = target: Cyclin-dependent kinase 15 (Homo sapiens) (UniProt Q96Q40); conditions: Compound concentration 1000.0 nM
[38] = tested on: Receptor-type tyrosine-protein kinase FLT3 (Homo sapiens), P36888 [UNDEFINED MUTATION]; conditions: Compound concentration 1000.0 nM; remark: listed apart in the source
[39] = target: Mitogen-activated protein kinase 4 (Homo sapiens) (UniProt P31152); conditions: Compound concentration 1000.0 nM
Chain of Mitogen-activated protein kinase 4 (Homo sapiens) (P31152 whole entry): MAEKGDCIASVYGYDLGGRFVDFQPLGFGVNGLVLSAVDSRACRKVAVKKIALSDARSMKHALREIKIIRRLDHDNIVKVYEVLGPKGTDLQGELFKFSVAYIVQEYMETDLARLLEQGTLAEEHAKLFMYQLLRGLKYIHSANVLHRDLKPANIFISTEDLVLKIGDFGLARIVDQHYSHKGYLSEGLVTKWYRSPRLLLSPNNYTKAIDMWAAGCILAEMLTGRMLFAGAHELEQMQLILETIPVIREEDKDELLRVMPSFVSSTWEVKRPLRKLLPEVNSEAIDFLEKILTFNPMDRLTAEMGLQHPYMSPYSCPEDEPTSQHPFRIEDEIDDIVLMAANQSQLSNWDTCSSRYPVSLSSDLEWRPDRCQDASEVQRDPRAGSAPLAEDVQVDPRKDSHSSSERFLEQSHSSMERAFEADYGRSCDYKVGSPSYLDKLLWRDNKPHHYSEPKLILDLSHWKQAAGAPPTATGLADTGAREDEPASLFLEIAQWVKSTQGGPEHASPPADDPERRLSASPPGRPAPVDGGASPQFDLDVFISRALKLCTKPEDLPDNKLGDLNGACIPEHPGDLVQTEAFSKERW

[40] = target: Tyrosine-protein kinase ZAP-70 (Homo sapiens) (UniProt P43403); conditions: Compound concentration 1000.0 nM
[41] = target: Serine/threonine-protein kinase 3 (Homo sapiens) (UniProt Q13188); conditions: Compound concentration 1000.0 nM
[42] = target: Phosphatidylinositol 4,5-bisphosphate 3-kinase catalytic subunit alpha isoform (Homo sapiens) (UniProt P42336); conditions: Compound concentration 1000.0 nM
[43] = target: Sigma non-opioid intracellular receptor 1 (Homo sapiens, UniProt Q99720); experiment: GPCRScan assay: inhibition of Sigma 1; set-up: radioligand conc. used [nm] 4.0 – 5.0, parental cells HEKT
[44] = target: Serine/threonine-protein kinase RIO1 (Homo sapiens) (UniProt Q9BRS2); conditions: Compound concentration 1000.0 nM

CN(C)CC#Cc1ccc(OCCCc2sc(N3CCc4cccc(C(=O)Nc5nc6ccccc6s5)c4C3)nc2C(=O)O)c(F)c1 [A-1155463]
136 nM: Ki [43]
inactive: residual activity [1] 82% | residual activity [2] 100% | residual activity [3] 81% | residual activity [4] 100% | residual activity [5] 100% | residual activity [6] 98% | residual activity [7] 87% | residual activity [8] 94% | inhibition [9] 34.5% | residual activity [10] 93% | residual activity [11] 100% | residual activity [12] 93% | residual activity [13] 69% | residual activity [14] 95% | residual activity [15] 100% | residual activity [16] 100% | residual activity [17] 96% | residual activity [18] 100% | residual activity [19] 76% | residual activity [20] 100% | residual activity [21] 90% | residual activity [22] 100% | residual activity [23] 98% | residual activity [24] 100% | residual activity [25] 96% | residual activity [26] 100% | residual activity [27] 62% | residual activity [28] 100% | residual activity [29] 100% | residual activity [30] 100% | residual activity [31] 100% | residual activity [32] 100% | residual activity [33] 100% | residual activity [34] 100% | residual activity [35] 84% | residual activity [36] 100% | residual activity [37] 100% | residual activity [38] 100% | residual activity [39] 89% | residual activity [40] 100% | residual activity [41] 88% | residual activity [42] 89% | residual activity [44] 91%
